From US20250171438A1 (Agios Pharmaceuticals, Inc., priority 2022, published 2025)

These compounds were tested against T1, human PAH with the R408W mutation (Homo sapiens, UniProt P00439, R408W) (assay: Cell Based Phenylalanine Flux Assay). Settings: A375 cells expressing human R408W PAH; 24 hrs compound incubation; 13C-Tyrosine by LC-MS; average where tested multiple times; read-out: AC50.
T1 construct: expressed in transfected cells
T1 sequence (P00439 1-452 R408W): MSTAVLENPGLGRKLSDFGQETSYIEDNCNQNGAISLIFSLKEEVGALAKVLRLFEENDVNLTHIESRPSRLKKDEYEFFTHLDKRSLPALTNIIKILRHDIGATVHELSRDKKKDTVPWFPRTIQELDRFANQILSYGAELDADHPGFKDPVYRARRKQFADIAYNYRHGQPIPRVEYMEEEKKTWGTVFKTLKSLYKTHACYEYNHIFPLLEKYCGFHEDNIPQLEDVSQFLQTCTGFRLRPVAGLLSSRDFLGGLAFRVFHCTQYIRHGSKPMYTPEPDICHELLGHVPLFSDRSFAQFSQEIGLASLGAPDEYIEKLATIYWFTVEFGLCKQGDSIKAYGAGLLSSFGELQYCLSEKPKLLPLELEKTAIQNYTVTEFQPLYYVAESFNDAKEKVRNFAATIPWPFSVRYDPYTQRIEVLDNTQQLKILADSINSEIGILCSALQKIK
`O=C(CCc1nccs1)N1CCc2[nH]cnc2[C@H]1c1nc(C2CC2)cs1` [Example 2147] showed an AC50 of over 5 µM. Work on `C[C@H](O)c1nc(C(F)F)c(C(=O)N2CCc3[nH]cnc3[C@@H]2c2nc3ccccc3s2)o1` [Example 2096, ((R)-4-(benzo[d]thiazol-2-yl)-6,7-dihydro-1H-imidazo[4,5-c]pyridin-5(4H)-yl)(4-(difluoromethyl)-2-((S)-1-hydroxyethyl)oxazol-5-yl)methanone] yielded an AC50 of 1 to 5 µM. `O=C(c1cnn2ccccc12)N1CCc2[nH]cnc2[C@@H]1c1nc2c(Br)cccc2s1` [Example 1242, (R)-(4-(4-bromobenzo[d]thiazol-2-yl)-6,7-dihydro-1H-imidazo[4,5-c]pyridine-5(4H)-yl)(pyrazolo [1,5-a]pyridin-3-yl) methanone] was tested, and the AC50 was over 5 µM. In the case of `O=C(c1ncc(Cl)s1)N1CCc2[nH]cnc2[C@@H]1c1nc2ccc(Br)cc2[nH]1` [Example 976, (R)-(4-(6-bromo-1H-benzo[d]imidazol-2-yl)-6,7-dihydro-1H-imidazo[4,5-c]pyridin-5(4H)-yl)(5-chlorothiazol-2-yl)methanone], the AC50 was over 5 µM. Work on `O=C(c1cn(-c2ccccn2)nc1Cl)N1CCc2[nH]cnc2[C@@H]1c1nc2ccccc2s1` [Example 1908, (R)-(4-(benzo[d]thiazol-2-yl)-6,7-dihydro-1H-imidazo[4,5-c]pyridin-5(4H)-yl)(3-chloro-1-(pyridin-2-yl)-1H-pyrazol-4-yl)methanone] yielded an AC50 of 1 to 5 µM. Compound `Cc1ccc2sc([C@H]3c4nc[nH]c4CCN3C(=O)c3cnco3)nc2c1` [Example 2174, (R)-(4-(5-methylbenzo[d]thiazol-2-yl)-6,7-dihydro-1H-imidazo[4,5-c]pyridin-5(4H)-yl)(oxazol-5-yl)methanone] has an AC50 of over 5 µM. `c1cnc(N2CCc3[nH]cnc3[C@H]2c2nc3ccccc3s2)nc1` [Example 1438] was tested, and the AC50 was under 0.5 µM. `O=C(c1ocnc1C1CC1)N1CCCC2NC=NC2[C@H]1c1nc2ccccc2s1` (stereo partly drawn) [Example 2167, ((4S)-4-(benzo[d]thiazol-2-yl)-3a,4,6,7,8,8a-hexahydroimidazo[4,5-c]azepin-5(1H)-yl)(4-cyclopropyloxazol-5-yl)methanone] was tested, and the AC50 was under 0.5 µM. In the case of `Cc1cnc(CC(=O)N2CCc3[nH]cnc3[C@@H]2c2nc3ccccc3s2)s1` [Example 1458, (R)-1-(4-(benzo[d]thiazol-2-yl)-6,7-dihydro-1H-imidazo[4,5-c]pyridin-5(4H)-yl)-2-(5-methylthiazol-2-yl)ethanone], the AC50 was 1 to 5 µM. In the case of `CC(C)(O)c1nc(Cl)c(C(=O)N2CCc3[nH]cnc3[C@@H]2c2nc3c(F)cccc3s2)o1` [Example 1936, (R)-(4-chloro-2-(2-hydroxypropan-2-yl)oxazol-5-yl)(4-(4-fluorobenzo[d]thiazol-2-yl)-6,7-dihydro-1H-imidazo[4,5-c]pyridin-5(4H)-yl)methanone], the AC50 was 1 to 5 µM. Work on `Cc1ccc2nc([C@@H]3c4nc[nH]c4CCN3C(=O)c3cnco3)sc2c1` [Example 2175, (S)-(4-(6-methylbenzo[d]thiazol-2-yl)-6,7-dihydro-1H-imidazo[4,5-c]pyridin-5(4H)-yl)(oxazol-5-yl)methanone] yielded an AC50 of 0.5 to 1 µM. With `O=C(CC1CC1)N1CCc2[nH]cnc2[C@H]1c1nc2ccc(F)cc2[nH]1` [Example 964, (S)-2-cyclopropyl-1-(4-(6-fluoro-1H-benzo[d]imidazol-2-yl)-6,7-dihydro-1H-imidazo[4,5-c]pyridin-5(4H)-yl)ethanone] the AC50 was 0.5 to 1 µM. Work on `O=C(c1ocnc1-c1ccccc1)N1CCc2[nH]cnc2[C@H]1c1nc2ccccc2s1` [Example 1442] yielded an AC50 of 0.5 to 1 µM. `CC(C)(O)c1nc(Cl)c(C(=O)N2CCc3[nH]cnc3[C@H]2c2nc3c(F)cccc3s2)s1` [Example 2087, (S)-(4-chloro-2-(2-hydroxypropan-2-yl)thiazol-5-yl)(4-(4-fluorobenzo[d]thiazol-2-yl)-6,7-dihydro-1H-imidazo[4,5-c]pyridin-5(4H)-yl)methanone] gave an AC50 of 1 to 5 µM. `O=C(CC1CC1)N1CCc2[nH]cnc2[C@H]1c1nc2ccc(F)cc2s1` [Example 1117, (S)-2-cyclopropyl-1-(4-(6-fluorobenzo[d]thiazol-2-yl)-6,7-dihydro-1H-imidazo[4,5-c]pyridin-5(4H)-yl)ethanone] showed an AC50 of under 0.5 µM. `O=C(CCc1ncc(Cl)s1)N1CCc2[nH]cnc2[C@H]1c1nc2ccccc2[nH]1` [Example 996, (S)-1-(4-(1H-benzo[d]imidazol-2-yl)-1,4,6,7-tetrahydro-5H-imidazo[4,5-c]pyridin-5-yl)-3-(5-chlorothiazol-2-yl)propan-1-one] was tested, and the AC50 was 1 to 5 µM. `COCc1nc(Br)c(C(=O)N2CCc3[nH]cnc3[C@@H]2c2nc3c(F)cccc3s2)o1` [Example 1775, (R)-(4-bromo-2-(methoxymethyl)oxazol-5-yl)(4-(4-fluorobenzo[d]thiazol-2-yl)-6,7-dihydro-1H-imidazo[4,5-c]pyridin-5(4H)-yl)methanone] showed an AC50 of 0.5 to 1 µM. In the case of `CC(O)c1nc(Cl)c(C(=O)N2CCc3[nH]cnc3[C@@H]2c2nc3c(F)cccc3s2)o1` (single isomer, unassigned) [Example 2082], the AC50 was 1 to 5 µM. `C[C@@H](O)c1nc(C(F)F)c(C(=O)N2CCc3[nH]cnc3[C@@H]2c2nc3ccccc3s2)o1` [Example 2092, ((R)-4-(benzo[d]thiazol-2-yl)-6,7-dihydro-1H-imidazo[4,5-c]pyridin-5(4H)-yl)(4-(difluoromethyl)-2-((R)-1-hydroxyethyl)oxazol-5-yl)methanone] was tested, and the AC50 was 0.5 to 1 µM. `Cc1nc(C(C)(C)O)oc1C(=O)N1CCc2[nH]cnc2[C@H]1c1nc2ccccc2s1` [Example 1469] showed an AC50 of under 0.5 µM. Compound `O=C(c1ocnc1-c1ccccn1)N1CCc2[nH]cnc2[C@@H]1c1nc2c(F)cccc2s1` [Example 1524, (R)-(4-(4-fluorobenzo[d]thiazol-2-yl)-6,7-dihydro-1H-imidazo[4,5-c]pyridin-5(4H)-yl)(4-(pyridin-2-yl)oxazol-5-yl)methanone] has an AC50 of over 5 µM. `O=C(c1ocnc1C(F)(F)F)N1CC2(CC2)c2[nH]cnc2[C@@H]1c1nc2ccccc2s1` [Example 1667, (R)-(4′-(benzo[d]thiazol-2-yl)spiro[cyclopropane-1,7′-imidazo[4,5-c]pyridin]-5′(1′H,4′H,6′H)-yl)(4-(trifluoromethyl)oxazol-5-yl)methanone] was tested, and the AC50 was 1 to 5 µM. With `CC(C)(O)c1nc(Br)c(C(=O)N2CCc3[nH]cnc3[C@H]2c2nc3ccccc3s2)s1` [Example 2107] the AC50 was under 0.5 µM. `O=C(CCC1CC1)N1CCc2nc[nH]c2[C@H]1c1nc2c(F)cccc2s1` [Example 1113, (S)-3-cyclopropyl-1-(4-(4-fluorobenzo[d]thiazol-2-yl)-6,7-dihydro-3H-imidazo[4,5-c]pyridin-5(4H)-yl)propan-1-one] was tested, and the AC50 was 1 to 5 µM. `Cc1ocnc1CC(=O)N1CCc2[nH]cnc2[C@H]1c1nc2ccccc2s1` [Example 1531] showed an AC50 of under 0.5 µM.

Same assay, conditions: A375 cells expressing human R408W PAH; 24 hrs with compound; 13C-Tyrosine by LC-MS; average where tested multiple times; read-out: AC50
`O=C(c1nc(C(F)(F)F)co1)N1CCc2[nH]cnc2C1c1nc2ccccc2s1` (centres unmarked) showed an AC50 of 1 to 5 µM. `O=C(CCc1nccs1)N1CCc2[nH]cnc2C1c1nc2ccc(F)cc2[nH]1` (centres unmarked) gave an AC50 of 1 to 5 µM. In the case of `Cn1nc(C2CC2)cc1C(=O)N1CCc2[nH]cnc2[C@@H]1c1nc2c(F)cccc2s1` (single isomer, unassigned), the AC50 was over 5 µM. Work on `Cc1nnc(C(=O)N2CCc3[nH]cnc3C2c2nc3cc(F)ccc3s2)s1` (centres unmarked) yielded an AC50 of over 5 µM. Compound `O=C(c1nc2ccccc2[nH]1)N1CCc2[nH]cnc2[C@H]1c1nc2ccccc2[nH]1` [(S)-(4-(1H-benzo[d]imidazol-2-yl)-1,4,6,7-tetrahydro-5H-imidazo[4,5-c]pyridin-5-yl)(1H-benzo[d]imidazol-2-yl)methanone] has an AC50 of 1 to 5 µM. `Cc1ncc(C(=O)N2CCc3[nH]cnc3C2c2nc3c(F)cccc3s2)o1` (centres unmarked) showed an AC50 of over 5 µM. `CC(=O)N1CCc2[nH]cnc2C1c1nc2ccccc2s1` (centres unmarked) was tested, and the AC50 was over 5 µM. Work on `O=C(CCc1nc2ccccc2o1)N1CCc2[nH]cnc2C1c1nc2ccccc2[nH]1` (centres unmarked) yielded an AC50 of over 5 µM. In the case of `O=C(c1n[nH]c2ccccc12)N1CCc2[nH]cnc2C1c1nc2c(F)cccc2s1` (centres unmarked), the AC50 was 1 to 5 µM. With `Cc1nnc(C(=O)N2CCc3[nH]cnc3C2c2nc3ccccc3s2)o1` (centres unmarked) the AC50 was 1 to 5 µM. With `O=C(c1cnn2cc(Br)ccc12)N1CCc2[nH]cnc2C1c1nc2cc(F)ccc2s1` (centres unmarked) the AC50 was 1 to 5 µM. Work on `O=C(c1cnco1)N1CCc2[nH]cnc2[C@@H]1c1nc2cc(F)ccc2s1` (single isomer, unassigned) yielded an AC50 of over 5 µM. For `Cc1nnc(N2CCc3[nH]cnc3C2c2nc3ccccc3s2)o1` (centres unmarked), the AC50 was over 5 µM. Compound `O=C(c1nccs1)N1CCc2[nH]cnc2[C@H]1c1nc2ccc(F)cc2[nH]1` (single isomer, unassigned) has an AC50 of 1 to 5 µM. In the case of `O=C(c1ncn2ccccc12)N1CCc2[nH]cnc2C1c1nc2ccc(Cl)cc2[nH]1` (centres unmarked), the AC50 was over 5 µM. In the case of `O=C(c1cnn2cc(Cl)ccc12)N1CCc2[nH]cnc2C1c1nc2ccccc2[nH]1` (centres unmarked), the AC50 was over 5 µM. `O=C(c1nnc(-c2ccc(C(F)(F)F)cc2)o1)N1CCc2[nH]cnc2C1c1nc2c(F)cccc2s1` (centres unmarked) was tested, and the AC50 was 1 to 5 µM. `O=C(c1cnn(CC(F)(F)F)c1)N1CCc2[nH]cnc2C1c1nc2ccccc2s1` (centres unmarked) was tested, and the AC50 was over 5 µM. Work on `CC1CN(C(=O)c2cnc(N3CCOCC3)o2)C(c2nc3ccccc3s2)c2nc[nH]c21` (centres unmarked) yielded an AC50 of over 5 µM. Work on `Cc1nc(-c2ccccn2)c(C(=O)N2CCc3[nH]cnc3C2c2nc3c(F)cccc3s2)o1` (centres unmarked) yielded an AC50 of 1 to 5 µM. `CN(C)CCc1nnc(C(=O)N2CCc3[nH]cnc3C2c2nc3ccccc3s2)o1` (centres unmarked) showed an AC50 of over 5 µM. Compound `Cn1nc(CO)cc1C(=O)N1CCc2[nH]cnc2C1c1nc2c(F)cccc2s1` (centres unmarked) has an AC50 of 1 to 5 µM.
